According to paper PMC10439952, “JT002, a small molecule inhibitor of the NLRP3 inflammasome for the treatment of autoinflammatory disorders” (Scientific Reports, 2023):

Target: T1, NLRP3 inflammasome (Rattus norvegicus, UniProt D4A523)
T1 construct: host or cells: rat PBMCs
Test: Inhibition of IL-1β production in rat PBMCs stimulated by LPS + nigericin
Assay type: cell-based
Details: Rat PBMC, read-out: Geo Av IC50, IL-1β
From the text: Inflammasome activation and whole blood assays were essentially carried out as described earlier. Details can be found in the supplementary information section accompanying this publication. A protocol for blood draws from healthy volunteers and use of the blood in preclinical assays was approved by Western Institutional Review Board, Inc (Puyallup, WA, USA). Informed consent was obtained from each donor prior to the first blood draw.
4H). MS: m/z 433.1 (M+H+).
Inflammasome activation.PBMCs (iXCells Biotechnologies, San Diego, USA) were thawed the day before the assay and seeded in complete medium (RPMI 1640 medium with GlutaMAX, supplemented with an additional 2.5 g/L D-glucose, 10% Fet al Bovine Serum, 100 mM Sodium Pyruvate, 1% Penicillin/Streptomycin, 10 mM HEPES and 0.05 mM β -mercaptoethanol) in polystyrene V-bottom 96-well plates at 5x10^4 cells per well and incubated overnight at 37°C with 5% CO 2. […]
flagellin, prepared in Opt iMEM and combined with Lipofectamine 2000. […] After priming Nlrp3 -/- mBMDMs with 100 ng/mL of LPS for 3- 5 h, cells were exposed to 100 ng/mL L18- MDP and incubated overnight.At the end of the incubation period of the assays above, plates were briefly centri fuged and hal f of the cell culture supern atant remo ved and either analysed i mmediately or stored at - 80°C for subs equent cytokine […]

T1 sequence (D4A523 whole entry): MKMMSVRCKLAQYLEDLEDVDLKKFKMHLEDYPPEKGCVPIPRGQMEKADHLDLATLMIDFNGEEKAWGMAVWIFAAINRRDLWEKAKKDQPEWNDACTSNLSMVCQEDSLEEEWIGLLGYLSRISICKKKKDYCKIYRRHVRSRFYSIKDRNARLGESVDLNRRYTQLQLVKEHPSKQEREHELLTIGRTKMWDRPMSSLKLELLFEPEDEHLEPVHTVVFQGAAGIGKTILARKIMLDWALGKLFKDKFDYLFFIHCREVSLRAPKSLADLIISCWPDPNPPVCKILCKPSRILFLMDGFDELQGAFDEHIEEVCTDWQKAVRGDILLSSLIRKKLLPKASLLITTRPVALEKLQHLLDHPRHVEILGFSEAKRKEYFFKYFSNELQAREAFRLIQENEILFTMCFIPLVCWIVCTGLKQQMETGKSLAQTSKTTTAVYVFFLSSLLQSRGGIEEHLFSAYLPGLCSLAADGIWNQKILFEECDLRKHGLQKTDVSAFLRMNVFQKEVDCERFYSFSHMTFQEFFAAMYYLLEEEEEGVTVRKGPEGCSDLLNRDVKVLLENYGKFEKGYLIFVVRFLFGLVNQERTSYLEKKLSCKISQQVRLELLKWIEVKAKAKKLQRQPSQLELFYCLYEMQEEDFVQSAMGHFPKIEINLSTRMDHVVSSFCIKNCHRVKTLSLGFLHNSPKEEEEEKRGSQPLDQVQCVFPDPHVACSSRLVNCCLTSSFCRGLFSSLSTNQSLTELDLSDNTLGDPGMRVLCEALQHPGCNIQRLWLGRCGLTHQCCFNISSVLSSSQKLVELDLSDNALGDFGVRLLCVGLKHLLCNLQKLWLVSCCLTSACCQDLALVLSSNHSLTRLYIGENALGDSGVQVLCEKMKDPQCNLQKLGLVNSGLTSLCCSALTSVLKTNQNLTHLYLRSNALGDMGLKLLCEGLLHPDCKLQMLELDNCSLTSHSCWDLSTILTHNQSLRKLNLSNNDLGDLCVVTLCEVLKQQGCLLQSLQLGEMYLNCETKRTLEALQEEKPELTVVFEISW

IC50: 159 nM
Compound: CO[C@@H]1COc2c(S(=O)(=O)NC(=O)Nc3c4c(cc5c3CCC5)CCC4)cnn2C1 [JT002]
